Source: patent US8765779B2, “Tricyclic derivatives and their pharmaceutical use and compositions” (Cephalon, Inc., priority 2009, dated 2014)
pKi: −log10 of the molar value. Where a name gives a salt, the structure may show the parent alone. Read-outs that look alike come from different tables or passages of the source.

Target: T1, human 5-HT6 receptor (Homo sapiens, UniProt P50406)
T1 construct: host or cells: CHO-K1 cells, stably transfected; membranes prepared in house
Test: Human 5-HT6 Receptor Binding Assay ([3H]LSD displacement, scintillation beads)
Conditions: membranes of CHO-K1 cells with recombinant human 5-HT6, 4 nM [3H]LSD, read-out: h5-HT6 (Ki)

T1 sequence (P50406 whole entry): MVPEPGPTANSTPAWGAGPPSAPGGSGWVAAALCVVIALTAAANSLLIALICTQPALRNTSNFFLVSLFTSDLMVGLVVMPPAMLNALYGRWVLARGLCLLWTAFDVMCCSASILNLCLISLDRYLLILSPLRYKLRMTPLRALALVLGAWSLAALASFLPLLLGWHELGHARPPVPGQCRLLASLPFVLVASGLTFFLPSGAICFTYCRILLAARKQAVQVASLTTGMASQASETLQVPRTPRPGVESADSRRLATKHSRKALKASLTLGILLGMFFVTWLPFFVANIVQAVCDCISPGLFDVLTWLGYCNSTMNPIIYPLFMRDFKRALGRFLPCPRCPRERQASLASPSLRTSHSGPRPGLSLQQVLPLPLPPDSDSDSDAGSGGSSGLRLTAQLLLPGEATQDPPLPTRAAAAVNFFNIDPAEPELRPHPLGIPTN

Row | SMILES | pKi (Table 1, class symbols) | pKi (specific data)
1 | Cc1noc(C)c1S(=O)(=O)Oc1ccc2c(c1)C1CCNCC1O2 (stereo not shown) [Example 703] | < 6.00 | –
2 | COc1cc(OC)cc(S(=O)(=O)c2ccc3c(c2)OC2CNCCC32C)c1 (stereo not shown) [Example 487] | > 6.30 | –
3 | [O-][S+](c1ccc2oc3c(c2c1)CCNC3)c1cccc(F)c1F (stereo not shown) [Example 442] | < 6.00 | –
4 | CC(C)S(=O)(=O)c1ccc2c3c(oc2c1)CNCC3 [Example 234] | < 6.00 | –
5 | O=[N+]([O-])c1ccc(S(=O)(=O)c2ccc3c(c2)C2CCNCC2O3)cc1 (stereo not shown) [Example 177] | < 6.00 | –
6 | CC1(C)NCCc2c1oc1cc(S(=O)(=O)c3c[nH]c(=O)c(C(F)(F)F)c3)ccc21 [Example 377] | < 6.00 | –
7 | NC(=O)COc1cccc(S(=O)(=O)c2ccc3c(c2)OC2CNCCC32)c1 (stereo not shown) [Example 563] | < 6.00 | –
8 | CC(C)Oc1cc(F)cc(S(=O)(=O)c2ccc3c(c2)OC2CNCCC32C)c1 (stereo not shown) [Example 427] | > 6.30 | –
9 | COc1c(F)cc(F)cc1S(=O)(=O)c1ccc2c(c1)OC1CNCCC21C (stereo not shown) [Example 486] | > 6.30 | –
10 | O=S(=O)(Oc1ccc2c(c1)C1CCNCC1O2)c1ccc(C(F)(F)F)cc1 (stereo not shown) [Example 735] | < 6.00 | –
11 | O=[N+]([O-])c1ccc(S(=O)(=O)Oc2ccc3c(c2)OC2CNCCC32)cc1 (stereo not shown) [Example 688] | 6.00 to 6.30 | –
12 | O=S(=O)(c1cccc(Cl)c1)c1ccc2c3c(oc2c1)C1(CCOC1)NCC3 (stereo not shown) [Example 306] | > 6.30 | –
13 | COc1ccc(S(=O)(=O)Oc2ccc3c(c2)C2CCNCC2O3)cc1OC (stereo not shown) [Example 732] | 6.00 to 6.30 | –
14 | O=S(=O)(Oc1ccc2c(c1)C1CCNCC1O2)c1cccc2cccnc12 (stereo not shown) [Example 722] | 6.00 to 6.30 | –
15 | CC(=O)Nc1ccc(S(=O)(=O)c2ccc3c(c2)OC2CNCCC32)cc1 (stereo not shown) [Example 140] | > 6.30 | –
16 | COc1cc2c(cc1OC)CN(S(=O)(=O)c1ccc3c(c1)C1CCNCC1O3)CC2 (stereo not shown) [Example 859] | < 6.00 | –
17 | CC(C)c1ccc(S(=O)(=O)Oc2ccc3c(c2)C2CCNCC2O3)cc1 (stereo not shown) [Example 716] | > 6.30 | –
18 | COc1ccc(S(=O)(=O)c2cccc3c2OC2CNCCC32)cc1 (stereo not shown) [Example 187] | 6.00 to 6.30 | –
19 | O=S(=O)(Oc1ccc2c(c1)C1CCNCC1O2)c1cccc(Cl)c1Cl (stereo not shown) [Example 740] | > 6.30 | –
20 | CN(Cc1ccccc1)S(=O)(=O)c1ccc2c(c1)C1CCNCC1O2 (stereo not shown) [Example 858] | < 6.00 | –
21 | Cc1ccc(S(=O)(=O)c2ccc3c(c2)C2CCNCC2O3)cc1 (stereo not shown) [Example 174] | < 6.00 | –

Row | SMILES | pKi (Table 1, class symbols) | pKi (specific data)
22 | COc1cccc(S(=O)(=O)c2ccc3c4c(oc3c2)C(C)(C)NCC4)c1 [Example 16, 7-[(3-methoxyphenyl)sulfonyl]-1,1-dimethyl-1,2,3,4-tetrahydro[1]benzofuro[2,3-c]pyridine] | > 6.30 | –
23 | O=S(=O)(c1ccccc1)c1ccc2c(c1)OC1CNCCC21 (stereo not shown) [Example 326, 7-(phenylsulfonyl)-1,2,3,4,4a,9a-hexahydro[1]benzofuro[2,3-c]pyridine] | > 6.30 | –
24 | O=S(=O)(c1cccc2c1OC1CNCCC21)c1cccc2ccccc12 (stereo not shown) [Example 184] | > 6.30 | –
25 | O=S(=O)(c1ccc2c(c1)OC1CNCCC21)c1cccc2c1OC(F)(F)O2 (stereo not shown) [Example 461] | > 6.30 | –
26 | COCCCOc1cccc(S(=O)(=O)c2ccc3c(c2)OC2CNCCC32)c1 (stereo not shown) [Example 576] | > 6.30 | –
27 | CC1(C(F)F)NCCc2c1oc1cc(S(=O)(=O)c3cccc(F)c3F)ccc21 (single isomer, unassigned; enantiomer 1) [Example 471, 1-(Difluoromethyl)-7-[(2,3-difluorophenyl)sulfonyl]-1-methyl-1,2,3,4-tetrahydro[1]benzofuro[2,3-c]pyridine, enantiomer 1] | > 6.30 | –
28 | CC1(C)NCCc2c1oc1cc(S(=O)(=O)c3cc(Cl)c[n+]([O-])c3N)ccc21 [Example 371] | > 6.30 | –
29 | COc1cc(OC2CCC2)cc(S(=O)(=O)c2ccc3c(c2)OC2CNCCC32)c1 (stereo not shown) [Example 583] | > 6.30 | –
30 | [O-][S+](c1ccc2c3c(oc2c1)CNCC3)c1ccccc1Cl (stereo not shown) [Example 229] | > 6.30 | –
31 | O=S(=O)(Oc1ccc2c(c1)OC1CNCCC21)c1cccc2cnccc12 (stereo not shown) [Example 684] | 6.00 to 6.30 | –
32 | CN(C)c1cccc(S(=O)(=O)c2ccc3oc4c(c3c2)CCNC4)c1 [Example 355] | < 6.00 | –
33 | CC(C)c1ccc(S(=O)(=O)c2ccc3c(c2)OC2CNCCC32)cc1 (stereo not shown) [Example 125] | > 6.30 | –
34 | COCCCOc1cc(OC(C)C)cc(S(=O)(=O)c2ccc3c(c2)OC2CNCCC32)c1 (stereo not shown) [Example 588] | > 6.30 | –
35 | CC(C)c1ccc(S(=O)(=O)c2ccc3oc4c(c3c2)CCNC4)cc1 [Example 259] | > 6.30 | –
36 | O=S(=O)(c1cccc(C(F)(F)F)c1)c1ccc2oc3c(c2c1)CCNC3 [Example 239] | > 6.30 | –
37 | CC(C)N1CCC2c3ccc(S(=O)(=O)c4ccccc4)cc3OC2C1 (stereo not shown) [Example 608, 7-(phenylsulfonyl)-2-(propan-2-yl)-1,2,3,4,4a,9a-hexahydro[1]benzofuro[2,3-c]pyridine] | > 6.30 | 7.31
38 | CCCOc1cccc(S(=O)(=O)c2ccc3c(c2)OC2CNCCC32)c1 (stereo not shown) [Example 572] | > 6.30 | –
39 | CC1(C)NCCc2c1oc1cc(S(=O)(=O)c3cccc(Cl)c3)ccc21 [Example 17, 7-[(3-chlorophenyl)sulfonyl]-1,1-dimethyl-1,2,3,4-tetrahydro[1]benzofuro[2,3-c]pyridine] | > 6.30 | –
40 | O=S(=O)(Nc1ccc(Cl)cc1)c1ccc2c(c1)C1CCNCC1O2 (stereo not shown) [Example 836, N-(4-Chlorophenyl)-1,2,3,4,4a,9a-hexahydro[1]benzofuro[2,3-c]pyridine-6-sulfonamide] | < 6.00 | –
41 | CC(C)Oc1ccccc1S(=O)(=O)c1ccc2c(c1)OC1CNCCC21 (stereo not shown) [Example 406] | > 6.30 | –

More lines, now with the values ahead:

Row | pKi (Table 1, class symbols) | pKi (specific data) | SMILES
42 | > 6.30 | – | O=S(=O)(c1cccc(OCC2CCOCC2)c1)c1ccc2c(c1)OC1CNCCC21 (stereo not shown) [Example 581, 7-{[3-(tetrahydro-2H-pyran-4-ylmethoxy)phenyl]sulfonyl}-1,2,3,4,4a,9a-hexahydro[1]benzofuro[2,3-c]pyridine]
43 | > 6.30 | – | O=S(=O)(c1cccc(F)c1)c1ccc2c3c(oc2c1)C1(CCOC1)NCC3 (single isomer, unassigned) [Example 53, 7-[(3-fluorophenyl)sulfonyl]-3,4,4′,5′-tetrahydro-2H-spiro[1-benzofuro[2,3-c]pyridine-1,3′-furan]]
44 | > 6.30 | – | O=S(=O)(c1cccc(OCc2cccnc2)c1)c1ccc2c(c1)OC1CNCCC21 (stereo not shown) [Example 559]
45 | > 6.30 | – | O=S(=O)(c1ccc(Oc2ccccc2)cc1)c1ccc2c3c(oc2c1)CNCC3 [Example 201]
46 | > 6.30 | – | CC(=O)N(C)CCC1NCCc2c1oc1cc(S(=O)(=O)c3cccc(Cl)c3)ccc21 (racemic) [Example 542, N-(2-{7-[(3-chlorophenyl)sulfonyl]-1,2,3,4-tetrahydro[1]benzofuro[2,3-c]pyridin-1-yl}ethyl)-N-methylacetamide]
47 | > 6.30 | – | CN(C)C(=O)CC1(C)NCCc2c1oc1cc(S(=O)(=O)c3cccc(F)c3)ccc21 (racemic) [Example 40, 2-{7-[(3-fluorophenyl)sulfonyl]-1-methyl-1,2,3,4-tetrahydro[1]benzofuro[2,3-c]pyridin-1-yl}-N,N-dimethylacetamide]
48 | > 6.30 | – | Cc1ccc(S(=O)(=O)Oc2ccc3c(c2)C2CCNCC2O3)cc1 (stereo not shown) [Example 700]
49 | > 6.30 | – | O=S(=O)(Oc1ccc2c(c1)OC1CNCCC21)c1csc(C(F)(F)F)c1-c1ccccc1 (stereo not shown) [Example 686]
50 | > 6.30 | – | CC(C)C1NCCc2c1oc1ccc(S(=O)(=O)c3cccc(F)c3)cc21 (stereo not shown) [Example 512]
51 | > 6.30 | – | O=S(=O)(c1cccc(Cl)c1)c1ccc2c3c(oc2c1)C(CCBr)NCC3 (stereo not shown) [Example 501, 1-(2-bromoethyl)-7-[(3-chlorophenyl)sulfonyl]-1,2,3,4-tetrahydro[1]benzofuro[2,3-c]pyridine]
52 | > 6.30 | – | O=S(=O)(c1cccc(OCC(F)F)c1)c1ccc2c(c1)OC1CNCCC21 (stereo not shown) [Example 578]
53 | > 6.30 | – | CC(C)Oc1cc(F)cc(S(=O)(=O)c2ccc3c(c2)OC2CNCCC32)c1 (single isomer, unassigned) [Example 364, 7-(3-Fluoro-5-isopropoxy-benzenesulfonyl)-1,2,3,4,4a,9a-hexahydro-benzo[4,5]furo[2,3-c]pyridine hydrochloride]
54 | > 6.30 | – | CC(=O)NCC1NCCc2c1oc1cc(S(=O)(=O)c3cccc(F)c3)ccc21 (racemic) [Example 535, N-({7-[(3-fluorophenyl)sulfonyl]-1,2,3,4-tetrahydro[1]benzofuro[2,3-c]pyridin-1-yl}methyl)acetamide]
55 | > 6.30 | – | O=S(=O)(c1ccc2c(c1)OC1CNCCC21)c1cc(F)cc(F)c1F (stereo not shown) [Example 412]
56 | > 6.30 | – | O=S(=O)(c1ccc(Cl)c(Cl)c1)c1ccc2oc3c(c2c1)CCNC3 [Example 261, 6-[(3,4-dichlorophenyl)sulfonyl]-1,2,3,4-tetrahydro[1]benzofuro[2,3-c]pyridine]
57 | > 6.30 | – | O=S(=O)(c1cc(F)cc(OCc2ccccc2)c1)c1ccc2c(c1)OC1CNCCC21 (stereo not shown) [Example 484]
58 | > 6.30 | – | Cc1c(Cl)cccc1S(=O)(=O)Oc1ccc2c(c1)OC1CNCCC21 (stereo not shown) [Example 658]
59 | > 6.30 | – | CC(C)COc1cc(F)cc(S(=O)(=O)c2ccc3c(c2)OC2CNCCC32)c1 (stereo not shown) [Example 402]
60 | > 6.30 | – | COc1ccc(OC)c(S(=O)(=O)Oc2ccc3c(c2)OC2CNCCC32)c1 (stereo not shown) [Example 670]
61 | > 6.30 | – | COc1cc(F)cc(S(=O)(=O)c2ccc3c(c2)OC2CNCCC32)c1 (stereo not shown) [Example 407]
62 | > 6.30 | – | O=S(=O)(c1cccc(Oc2ccccn2)c1)c1ccc2c(c1)OC1CNCCC21 (stereo not shown) [Example 579]
63 | > 6.30 | – | O=S(=O)(c1ccc(Cl)cc1)c1ccc2c3c(oc2c1)CNCC3 [Example 203]
64 | > 6.30 | – | O=S(=O)(c1ccc2c3c(oc2c1)CNCC3)c1cccc2c1OCCO2 [Example 467]
65 | > 6.30 | – | O=S(=O)(c1ccc(Cl)c(Cl)c1)c1cccc2c1OC1CNCCC21 (stereo not shown) [Example 186]
66 | > 6.30 | – | CC(=O)N(C)CC1NCCc2c1oc1cc(S(=O)(=O)c3cccc(F)c3)ccc21 (racemic) [Example 537, N-({7-[(3-fluorophenyl)sulfonyl]-1,2,3,4-tetrahydro[1]benzofuro[2,3-c]pyridin-1-yl}methyl)-N-methylacetamide]
